Data reported in publication PMC3174134, “Lucanthone and Its Derivative Hycanthone Inhibit Apurinic Endonuclease-1 (APE1) by Direct Protein Binding” (PLoS ONE, 2011).

How the values were obtained:
human Nth [1] = biological target: T1, human Nth (Homo sapiens, UniProt P78549); assay: Cleavage of human Nth by lucanthone (specificity control); conditions: data not shown
T1 sequence (P78549 23-304): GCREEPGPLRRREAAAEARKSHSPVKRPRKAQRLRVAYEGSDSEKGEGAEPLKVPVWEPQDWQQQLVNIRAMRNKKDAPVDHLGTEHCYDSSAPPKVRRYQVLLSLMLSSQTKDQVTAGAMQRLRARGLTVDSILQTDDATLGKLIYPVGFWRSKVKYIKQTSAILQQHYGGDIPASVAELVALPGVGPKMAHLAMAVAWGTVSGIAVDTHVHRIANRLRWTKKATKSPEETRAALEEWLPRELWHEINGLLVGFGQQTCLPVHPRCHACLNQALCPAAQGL

APE1 = APE1 (Homo sapiens, UniProt P27695); assay: APE1 cleavage in whole cell extracts of U251 1-5 APE1 overexpressor clone, Western blot with protease inhibitor cocktail; design: the full length APE1 protein was successfully expressed and purified; made in house; host or cells: E. coli BL21/DE3; conditions: U251 1-5 whole cell extracts, 2 h, 37°C
Sequence of APE1 (P27695 whole entry): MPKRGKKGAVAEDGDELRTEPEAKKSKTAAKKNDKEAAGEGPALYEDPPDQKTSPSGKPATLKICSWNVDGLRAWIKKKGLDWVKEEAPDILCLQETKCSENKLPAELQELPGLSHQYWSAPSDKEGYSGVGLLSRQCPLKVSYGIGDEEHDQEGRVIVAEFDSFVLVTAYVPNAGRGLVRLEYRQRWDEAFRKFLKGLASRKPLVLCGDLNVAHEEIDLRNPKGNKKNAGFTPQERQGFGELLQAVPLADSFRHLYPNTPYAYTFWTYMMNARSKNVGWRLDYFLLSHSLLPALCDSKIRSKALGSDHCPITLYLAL
Protocol: (§1) Total purified protein concentration was determined by the ratio of A280/A260. 250 ng of APE1 treated with lucanthone or hycanthone (0.05–100 µM) for 2 h at 37°C in final volume of 30 µl were mixed with an equal volume of gel loading buffer (0.001% bromophenol blue, 4% SDS, 10% 2-ME, 20% glycerol, and 125 mM Tris pH 6.8) and denatured at 95°C for 5 min. Total protein concentration in cell extracts was determined using the Bradford assay (BioRad, Hercules, CA) and 25 µg of total protein from soluble or insoluble cell fractions were mixed with an equal volume of gel loading buffer (0.001% bromophenol blue, 4% SDS, 10% 2-ME, 20% glycerol, and 125 mM Tris pH 6.8) and denatured at 95°C for 5 min. This mixture was separated by SDS-PAGE (4% stacking, 7.5% resolving gel) for 2–3 h at 40 mA on a BioRad MiniPROTEAN II Electrophoresis Cell. To detect proteins, proteins were transferred onto a trans-Blot nitrocellulose membrane (0.45 µm; BioRad) overnight at 4°C at 15 mA in standard Tris-Glycine buffer containing 20% ethanol. […] Chemi-luminescence was developed using an ECL kit according to the manufacturer's instructions and detected by exposing the blot to HyperfilmECL for 30 s–3 min. […]

[2] = biological target: T2, APE1 single mutants (F266A or W280S) (Homo sapiens, UniProt P27695, F266A); assay: Endonuclease activity of APE1 hydrophobic site mutants with lucanthone; assay type: biochemical; conditions: 100 µM lucanthone, 2 h, 37°C
T2 construct: made in house
T2 sequence (P27695 2-318 F266A): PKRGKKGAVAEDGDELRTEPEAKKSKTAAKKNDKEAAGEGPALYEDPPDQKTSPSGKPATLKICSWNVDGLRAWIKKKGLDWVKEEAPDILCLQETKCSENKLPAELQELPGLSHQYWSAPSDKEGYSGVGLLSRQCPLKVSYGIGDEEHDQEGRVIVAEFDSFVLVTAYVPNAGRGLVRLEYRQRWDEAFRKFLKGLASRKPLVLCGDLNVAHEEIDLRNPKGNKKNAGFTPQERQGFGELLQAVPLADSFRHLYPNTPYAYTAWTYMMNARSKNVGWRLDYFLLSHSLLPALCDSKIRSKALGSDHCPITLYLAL
Protocol: APE1 endonuclease activity was determined using an assay that measures the conversion of plasmid DNA from supercoiled to relaxed form by incision at an abasic site [35]–[36]. Briefly, the substrate used was 200 ng of depurinated pUC18 DNA in 10 µl of 1× APE1 buffer containing 50 mM Hepes, pH 7.4, 150 mM KCl, 5 mM MgCl2 and 100 µg/ml of BSA in presence of different concentrations of the cell extract (1 µl containing 0–55 ng of total protein). Similar reactions mixtures were set up with untreated pUC18, which served as the internal control. This reaction mixture was incubated at 37°C for 15 min, and the reaction was stopped by addition of alkaline stop mix (0.25% bromocresol green in 0.25N NaOH, 50% glycerol) and left at room temperature for 10–15 min. Then the products were resolved on a 0.8% agarose gel in 40 mM Tris-acetate and 2 mM EDTA for 2 h. The gel was stained with ethidium bromide to visualize supercoiled and relaxed plasmid DNA and imaged with a digital imaging system and the area under the supercoiled and relaxed form was determined. Final calculations were done in femtomoles (fmol) of abasic sites incised/min/mg protein with normalization done using Pyruvate Kinase units (PKU) present in these extracts. […] The endonuclease activity inhibition by lucanthone was analyzed using standard Lineweaver-Burke Plot to determine if the inhibition was competitive or non-competitive.

APE1 mutant proteins [3] = biological target: T3, APE1 mutant proteins (Homo sapiens, UniProt P27695, W280S); assay: Cleavage of mutant APE1 proteins by lucanthone, Western blot; conditions: 100 µM lucanthone, 37°C, 2 h
T3 construct: made in house
T3 sequence (P27695 2-318 W280S): as the sequence (P27695 2-318 F266A) above, with A265F, W279S counted along it
Protocol: as §1

APE1 mutant proteins [4] = assay: as above; design: species or system human; conditions: 100 µM lucanthone, 37°C, 2 h
Protocol: as §1

human Nth [5] = biological target: T1, human Nth; assay: Circular dichroism of human Nth with lucanthone; conditions: 140 µM lucanthone, 37°C, 60 min
[6] = biological target: E.coli endonuclease IV (Nfo) (Escherichia coli, UniProt P0A6C1); assay: Circular dichroism of E.coli Nfo with lucanthone; conditions: 140 µM lucanthone, 37°C, 60 min

Structure (SMILES): CCN(CC)CCNc1ccc(C)c2sc3ccccc3c(=O)c12 [lucanthone, 1-[2-diethylaminoethylamino]-4-methylthioxanthen-9-one]
- Cleavage of human Nth (human Nth [1]): did not observe any cleavage
- Concentration causing cleavage of APE1 (APE1): 50 µM
- Inhibition of endonuclease activity of single mutants F266A or W280S [2]: no inhibition was detected
- Cleavage of W280S mutant (APE1 mutant proteins [3]): significant cleavage
- Cleavage of hydrophobic site mutants except W280S (APE1 mutant proteins [4]): did not undergo cleavage
- Conformational change of human Nth (CD) (human Nth [5]): little conformational changes
- Conformational change of E.coli Nfo (CD) [6]: little conformational changes
